Source: patent US20220370406A1, “METHOD OF TREATING STIMULANT USE DISORDER USING A COMBINATION OF TOPIRAMATE AND PHENTERMINE” (University of Kentucky Research Foundation, priority 2019, published 2022)

System: participants with cocaine use disorder
Test: Medical safety session: subjective effects questionnaires after intranasal cocaine
Assay type: in vivo, human
Experimental: Participants completed one, single-blind medical safety session to ensure they could tolerate intranasal cocaine. Intranasal cocaine doses (i.e., 0 [placebo], 10, 20, 40 and 80 mg) were administered in ascending order. Placebo (i.e., 0 mg) was administered at 0900 hours. The subjective-effect questionnaires and cardiovascular measures described below were completed 30 minutes before placebo administration (i.e., 0830 hours), immediately following and at 15-minute intervals for 45 minutes. Subsequent cocaine administrations were separated by 45 minutes.

[1] = Cocaine 40 mg, Topiramate (0 mg/day) group
[2] = Cocaine 40 mg, Topiramate (50 mg/day) group
[3] = Cocaine 40 mg, Topiramate (100 mg/day) group
[4] = Cocaine 80 mg, Topiramate (0 mg/day) group
[5] = Cocaine 80 mg, Topiramate (50 mg/day) group
[6] = Cocaine 80 mg, Topiramate (100 mg/day) group

COC(=O)[C@H]1[C@@H](OC(=O)c2ccccc2)C[C@@H]2CC[C@H]1N2C [Cocaine, cocaine]
Adjective Rating Scales Sedative, mean peak effect [1]: 3.2
Adjective Rating Scales Stimulant, mean peak effect [1]: 0.0
Drug-Effect Questionnaire Active-Alert-Energetic, mean peak effect [1]: 26.0
Drug-Effect Questionnaire Any Effect, mean peak effect [1]: 33.3
Drug-Effect Questionnaire Bad Effects, mean peak effect [1]: 9.0
Drug-Effect Questionnaire Euphoric, mean peak effect [1]: 10.6
Drug-Effect Questionnaire Good Effects, mean peak effect [1]: 33.9
Drug-Effect Questionnaire High, mean peak effect [1]: 29.5
Drug-Effect Questionnaire Irregular Heart Beat, mean peak effect [1]: 7.4
Drug-Effect Questionnaire Like Drug, mean peak effect [1]: 36.1
Drug-Effect Questionnaire Nausea-Queasy-Sick, mean peak effect [1]: 3.2
Drug-Effect Questionnaire Nervous-Anxious, mean peak effect [1]: 10.1
Drug-Effect Questionnaire Performance Impaired, mean peak effect [1]: 10.7
Drug-Effect Questionnaire Performance Improved, mean peak effect [1]: 10.7
Drug-Effect Questionnaire Restless, mean peak effect [1]: 10.4
Drug-Effect Questionnaire Rush, mean peak effect [1]: 28.1
Drug-Effect Questionnaire Shaky-Jittery, mean peak effect [1]: 9.7
Drug-Effect Questionnaire Sluggish-Fatigued-Lazy, mean peak effect [1]: 9.0
Drug-Effect Questionnaire Stimulated, mean peak effect [1]: 21.1
Drug-Effect Questionnaire Talkative-Friendly, mean peak effect [1]: 16.7
Drug-Effect Questionnaire Willing to Pay For, mean peak effect [1]: 32.8
Drug-Effect Questionnaire Willing to Take Again, mean peak effect [1]: 40.6
Adjective Rating Scales Sedative, mean peak effect [2]: 2.1
Adjective Rating Scales Stimulant, mean peak effect [2]: 10.1
Drug-Effect Questionnaire Active-Alert-Energetic, mean peak effect [2]: 24.7
Drug-Effect Questionnaire Any Effect, mean peak effect [2]: 19.3
Drug-Effect Questionnaire Bad Effects, mean peak effect [2]: 7.2
Drug-Effect Questionnaire Euphoric, mean peak effect [2]: 6.2
Drug-Effect Questionnaire Good Effects, mean peak effect [2]: 17.0
Drug-Effect Questionnaire High, mean peak effect [2]: 29.9
Drug-Effect Questionnaire Irregular Heart Beat, mean peak effect [2]: 6.0
Drug-Effect Questionnaire Like Drug, mean peak effect [2]: 16.7
Drug-Effect Questionnaire Nausea-Queasy-Sick, mean peak effect [2]: 9.8
Drug-Effect Questionnaire Nervous-Anxious, mean peak effect [2]: 1.8
Drug-Effect Questionnaire Performance Impaired, mean peak effect [2]: 1.9
Drug-Effect Questionnaire Performance Improved, mean peak effect [2]: 10.6
Drug-Effect Questionnaire Restless, mean peak effect [2]: 2.9
Drug-Effect Questionnaire Rush, mean peak effect [2]: 30.0
Drug-Effect Questionnaire Shaky-Jittery, mean peak effect [2]: 2.8
Drug-Effect Questionnaire Sluggish-Fatigued-Lazy, mean peak effect [2]: 0.1
Drug-Effect Questionnaire Stimulated, mean peak effect [2]: 22.3
Drug-Effect Questionnaire Talkative-Friendly, mean peak effect [2]: 13.6
Drug-Effect Questionnaire Willing to Pay For, mean peak effect [2]: 17.0
Drug-Effect Questionnaire Willing to Take Again, mean peak effect [2]: 17.4
Adjective Rating Scales Sedative, mean peak effect [3]: 5.1
Adjective Rating Scales Stimulant, mean peak effect [3]: 11.8
Drug-Effect Questionnaire Active-Alert-Energetic, mean peak effect [3]: 13.8
Drug-Effect Questionnaire Any Effect, mean peak effect [3]: 22.1
Drug-Effect Questionnaire Bad Effects, mean peak effect [3]: 3.0
Drug-Effect Questionnaire Euphoric, mean peak effect [3]: 6.7
Drug-Effect Questionnaire Good Effects, mean peak effect [3]: 24.0
Drug-Effect Questionnaire High, mean peak effect [3]: 23.6
Drug-Effect Questionnaire Irregular Heart Beat, mean peak effect [3]: 9.0
Drug-Effect Questionnaire Like Drug, mean peak effect [3]: 20.8
Drug-Effect Questionnaire Nausea-Queasy-Sick, mean peak effect [3]: 16.2
Drug-Effect Questionnaire Nervous-Anxious, mean peak effect [3]: 8.1
Drug-Effect Questionnaire Performance Impaired, mean peak effect [3]: 4.1
Drug-Effect Questionnaire Performance Improved, mean peak effect [3]: 5.0
Drug-Effect Questionnaire Restless, mean peak effect [3]: 9.1
Drug-Effect Questionnaire Rush, mean peak effect [3]: 20.1
Drug-Effect Questionnaire Shaky-Jittery, mean peak effect [3]: 8.7
Drug-Effect Questionnaire Sluggish-Fatigued-Lazy, mean peak effect [3]: 9.1
Drug-Effect Questionnaire Stimulated, mean peak effect [3]: 16.5
Drug-Effect Questionnaire Talkative-Friendly, mean peak effect [3]: 13.2
Drug-Effect Questionnaire Willing to Pay For, mean peak effect [3]: 15.0
Drug-Effect Questionnaire Willing to Take Again, mean peak effect [3]: 16.4
Adjective Rating Scales Sedative, mean peak effect [4]: 4.1
Adjective Rating Scales Stimulant, mean peak effect [4]: 8.5
Drug-Effect Questionnaire Active-Alert-Energetic, mean peak effect [4]: 25.6
Drug-Effect Questionnaire Any Effect, mean peak effect [4]: 39.1
Drug-Effect Questionnaire Bad Effects, mean peak effect [4]: 8.2
Drug-Effect Questionnaire Euphoric, mean peak effect [4]: 10.5
Drug-Effect Questionnaire Good Effects, mean peak effect [4]: 33.3
Drug-Effect Questionnaire High, mean peak effect [4]: 27.7
Drug-Effect Questionnaire Irregular Heart Beat, mean peak effect [4]: 14.4
Drug-Effect Questionnaire Like Drug, mean peak effect [4]: 34.6
Drug-Effect Questionnaire Nausea-Queasy-Sick, mean peak effect [4]: 8.8
Drug-Effect Questionnaire Nervous-Anxious, mean peak effect [4]: 12.1
Drug-Effect Questionnaire Performance Impaired, mean peak effect [4]: 10.5
Drug-Effect Questionnaire Performance Improved, mean peak effect [4]: 11.5
Drug-Effect Questionnaire Restless, mean peak effect [4]: 10.1
Drug-Effect Questionnaire Rush, mean peak effect [4]: 27.3
Drug-Effect Questionnaire Shaky-Jittery, mean peak effect [4]: 13.8
Drug-Effect Questionnaire Sluggish-Fatigued-Lazy, mean peak effect [4]: 5.7
Drug-Effect Questionnaire Stimulated, mean peak effect [4]: 21.1
Drug-Effect Questionnaire Talkative-Friendly, mean peak effect [4]: 17.9
Drug-Effect Questionnaire Willing to Pay For, mean peak effect [4]: 30.5
Drug-Effect Questionnaire Willing to Take Again, mean peak effect [4]: 38.4
Adjective Rating Scales Sedative, mean peak effect [5]: 2.4
Adjective Rating Scales Stimulant, mean peak effect [5]: 13.2
Drug-Effect Questionnaire Active-Alert-Energetic, mean peak effect [5]: 31.4
Drug-Effect Questionnaire Any Effect, mean peak effect [5]: 29.6
Drug-Effect Questionnaire Bad Effects, mean peak effect [5]: 10.4
Drug-Effect Questionnaire Euphoric, mean peak effect [5]: 14.7
Drug-Effect Questionnaire Good Effects, mean peak effect [5]: 24.0
Drug-Effect Questionnaire High, mean peak effect [5]: 31.8
Drug-Effect Questionnaire Irregular Heart Beat, mean peak effect [5]: 0.8
Drug-Effect Questionnaire Like Drug, mean peak effect [5]: 28.4
Drug-Effect Questionnaire Nausea-Queasy-Sick, mean peak effect [5]: 1.2
Drug-Effect Questionnaire Nervous-Anxious, mean peak effect [5]: 2.2
Drug-Effect Questionnaire Performance Impaired, mean peak effect [5]: 1.9
Drug-Effect Questionnaire Performance Improved, mean peak effect [5]: 11.2
Drug-Effect Questionnaire Restless, mean peak effect [5]: 7.8
Drug-Effect Questionnaire Rush, mean peak effect [5]: 28.4
Drug-Effect Questionnaire Shaky-Jittery, mean peak effect [5]: 4.8
Drug-Effect Questionnaire Sluggish-Fatigued-Lazy, mean peak effect [5]: 0.0
Drug-Effect Questionnaire Stimulated, mean peak effect [5]: 31.8
Drug-Effect Questionnaire Talkative-Friendly, mean peak effect [5]: 14.3
Drug-Effect Questionnaire Willing to Pay For, mean peak effect [5]: 30.6
Drug-Effect Questionnaire Willing to Take Again, mean peak effect [5]: 30.3
Adjective Rating Scales Sedative, mean peak effect [6]: 7.8
Adjective Rating Scales Stimulant, mean peak effect [6]: 15.7
Drug-Effect Questionnaire Active-Alert-Energetic, mean peak effect [6]: 24.5
Drug-Effect Questionnaire Any Effect, mean peak effect [6]: 39.5
Drug-Effect Questionnaire Bad Effects, mean peak effect [6]: 12.2
Drug-Effect Questionnaire Euphoric, mean peak effect [6]: 16.2
Drug-Effect Questionnaire Good Effects, mean peak effect [6]: 27.9
Drug-Effect Questionnaire High, mean peak effect [6]: 42.0
Drug-Effect Questionnaire Irregular Heart Beat, mean peak effect [6]: 24.1
Drug-Effect Questionnaire Like Drug, mean peak effect [6]: 32.4
Drug-Effect Questionnaire Nausea-Queasy-Sick, mean peak effect [6]: 20.5
Drug-Effect Questionnaire Nervous-Anxious, mean peak effect [6]: 22.9
Drug-Effect Questionnaire Performance Impaired, mean peak effect [6]: 12.9
Drug-Effect Questionnaire Performance Improved, mean peak effect [6]: 9.5
Drug-Effect Questionnaire Restless, mean peak effect [6]: 11.1
Drug-Effect Questionnaire Rush, mean peak effect [6]: 36.1
Drug-Effect Questionnaire Shaky-Jittery, mean peak effect [6]: 22.1
Drug-Effect Questionnaire Sluggish-Fatigued-Lazy, mean peak effect [6]: 22.0
Drug-Effect Questionnaire Stimulated, mean peak effect [6]: 31.1
Drug-Effect Questionnaire Talkative-Friendly, mean peak effect [6]: 16.1
Drug-Effect Questionnaire Willing to Pay For, mean peak effect [6]: 21.0
Drug-Effect Questionnaire Willing to Take Again, mean peak effect [6]: 33.6
